Source: patent publication US20250163072A1, “MACROCYCLIC COMPOUNDS FOR THE TREATMENT OF CANCER” (Hoffmann-La Roche Inc., priority 2021, published 2025)

Experiments:
[1] = target: KRAS G12D binding to BRAF (Homo sapiens (Human), UniProt P01116+P62937, G12D); assay: KRAS-BRAF with CYPA (50 nM) interaction assay (TR-FRET), G12D; details: GMPPNP loaded 6His-KRAS, GST-BRAF RBD
Experimental: (§1) In this example, TR-FRET was also used to measure the compound or compound-CYPA dependent disruption of the KRAS G12C-BRAF complex. This protocol was also used to measure disruption of KRAS G12D or KRAS G12V binding to BRAF by a compound of the invention, respectively. In assay buffer containing 25 mM HEPES PH=7.4 (4-(2-hydroxyethyl)-1-piperazineethanesulfonic acid, Thermo, 15630080), 0.002% Tween20, 0.1% BSA, 100 mM NaCl, 5 mM MgCl2, 10 μM GMPPNP (Guanosine 5'-[β,γ-imido]triphosphate trisodium salt hydrate, Sigma, G0635), tagless CYPA, GMPPNP loaded 6His-KRAS proteins, and GST-BRAF^RBD were mixed in a well of a 384-well assay plate at final concentrations of 50 nM, 6.25 nM and 1 nM, respectively. Compound was present in plate wells as a 16-point 3-fold dilution series starting at a final concentration of 10 μM and incubated for 3 hours. A mixture of MAb Anti-6His-XL665 (Cisbio, 61HISXLB) and Mab anti-GST-TB cryptate (Cisbio, 61GSTTLB) was then added at a final concentration of 6.67 nM and 0.21 nM, respectively, and the plate was incubated for an additional 1.5 hours. TR-FRET signal was read on a […] microplate reader (Ex320 nm, Em 665/615 nm). Compounds that facilitate disruption of the KRAS-BRAF complex were identified as those eliciting a decrease in the TR-FRET ratio relative to DMSO control wells.

KRAS G12C-BRAF complex = KRAS G12C-BRAF complex (Homo sapiens (Human), UniProt P01116+P62937, G12C); assay: KRAS-BRAF with CYPA (50 nM) interaction assay (TR-FRET), G12C; assay type: binding; details: GMPPNP loaded 6His-KRAS, GST-BRAF RBD
KRAS G12C-BRAF complex, sequence (P01116-2 other isoform, or with tags, fused parts or gaps G12C): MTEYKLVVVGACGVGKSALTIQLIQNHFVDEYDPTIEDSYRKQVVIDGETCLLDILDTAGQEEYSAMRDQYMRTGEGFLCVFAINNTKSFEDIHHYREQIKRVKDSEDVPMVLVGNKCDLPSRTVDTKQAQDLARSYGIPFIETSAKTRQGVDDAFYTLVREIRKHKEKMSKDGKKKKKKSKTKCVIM
KRAS G12C-BRAF complex, sequence (P62937 whole entry): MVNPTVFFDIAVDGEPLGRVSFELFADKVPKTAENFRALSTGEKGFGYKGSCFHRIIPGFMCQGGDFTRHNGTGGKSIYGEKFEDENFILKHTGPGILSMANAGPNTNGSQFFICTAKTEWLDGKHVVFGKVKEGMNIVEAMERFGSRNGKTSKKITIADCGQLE
Experimental: as §1

SW620 cells = assay: Cell viability assay, SW620; assay type: cell-based, human; details: Homo sapiens, SW-620, SW620, 72 hours, Cell Counting Kit-8, read-out: G12V IC50
Experimental: (§2) The purpose of this cellular assay was to determine the effects of test compounds on the proliferation of human cancer cell lines NCI-H358 (ATCC-CRL5807) cells, AGS (ATCC-CRL-1739) cells, SW620 (ATCC-CCL-227) over a 3-day treatment period by quantifying the amount of NADPH present at endpoint using Cell Counting Kit-8. Cells were seeded at 5,000 cells/well (NCI-H358), 2,000 cells/well (AGS) 2,000 cells/well (SW620) in 96-well assay plates (Corning-3699) and incubated overnight. On the day of the assay, diluted compounds were then added in a final concentration of 0.5% DMSO. After 72 hours incubation, a tenth of the volume of cell counting kit 8(Dnjindo-CK04) was added into each well. Read the signal (OD450 minus OD650) using EnVision after 2 hours incubation. IC50 was determined by fitting a 4-parameter sigmoidal concentration response model.

AGS cells = assay: Cell viability assay, AGS; assay type: cell-based, human; details: Homo sapiens, 72 hours, Cell Counting Kit-8, read-out: G12D IC50
Experimental: as §2

KRAS G12D in AGS cells = assay: pERK inhibition assay, AGS; assay type: cell-based, human; details: Homo sapiens, 4 hours incubation
Experimental: (§3) This assay is to measure the ability of test compounds in inhibiting the phosphorylation of ERK, the downstream signaling of KRAS G12C in NCI-H358 cells, KRAS G12D in AGS cells, and KRAS G12V in SW620. NCI-H358 (ATCC-CRL5807) cells, AGS (ATCC-CRL-1739) cells, SW620 (ATCC-CCL-227) cells were all grown and maintained using RPMI-1640 medium (Thermo Fisher Scientific) with 10% fetal bovine serum and 1% penicillin/streptomycin. On the day prior to compound addition, cells were plated in tissue culture-treated 96 well plates (Corning-3699) at a density of 30,000 cell/well, 20,000 cell/well, 30,000 cell/well for NCI-H358, AGS and SW620 respectively, and allowed for attachment overnight. Diluted compounds were then added in a final concentration of 0.5% DMSO. After 4 hours of incubation, the medium was removed, 100 μL of 4% formaldehyde was added, and the assay plates were incubated at room temperature for 20 minutes. The plates were then washed once with phosphate buffered saline (PBS), and permeabilized with 100 μL of chilled methanol for 10 minutes. Non-specific antibody binding to the plates was blocked using 50 μL 1×BSA blocking buffer (Thermo-37520, 10-fold dilution by Phosphate-Buffered Saline Tween (PBST) for at least 1 hour at room temperature. The amount of phosphor-ERK was determined using an antibody specific for phosphorylated form of ERK. Primary antibody (pERK, CST-4370, Cell Signaling Technology) was diluted 1:300 in blocking buffer, with 50 μL aliquoted to each well, and incubated overnight at 4° C. Cells were washed five times for 5 minutes with PBST. Secondary antibody (HRP-linked anti-rabbit IgG, CST-7074, Cell Signaling Technology) was diluted 1:1000 in blocking buffer, and 50 μL was added to each well and incubated 1-2 hours at room temperature. Cells were washed 5 times for 5 minutes with PBST, 100 μL TMB ELISA substrate (abcam-ab171523) were added and gently shake for 20 minutes. 50 μL stop solution (abcam-ab171529) were added, and then read the signal (OD450) by EnVision. IC50 was determined by fitting a 4-parameter sigmoidal concentration response model.

NCI-H358 cells = assay: Cell viability assay, NCI-H358; assay type: cell-based, human; details: Homo sapiens, NCI-H358, 72 hours, Cell Counting Kit-8, read-out: G12C IC50
Experimental: as §2

[2] = target: KRAS G12V binding to BRAF (Homo sapiens (Human), UniProt P01116+P62937, G12V); assay: KRAS-BRAF with CYPA (50 nM) interaction assay (TR-FRET), G12V; details: GMPPNP loaded 6His-KRAS, GST-BRAF RBD
KRAS G12V binding to BRAF, sequence (P01116-2 other isoform, or with tags, fused parts or gaps G12V): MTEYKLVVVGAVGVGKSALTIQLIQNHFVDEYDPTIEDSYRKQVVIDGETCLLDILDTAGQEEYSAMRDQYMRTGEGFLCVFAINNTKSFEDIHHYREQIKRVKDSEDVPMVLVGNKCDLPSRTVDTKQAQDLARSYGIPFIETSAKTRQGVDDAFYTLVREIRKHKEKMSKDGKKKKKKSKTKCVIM
KRAS G12V binding to BRAF, sequence (P62937 whole entry): as the sequence (P62937 whole entry) above
Experimental: as §1

[3] = tested on: KRAS G12C in NCI-H358 cells; assay: pERK inhibition assay, NCI-H358; assay type: cell-based, human; details: Homo sapiens, 4 hours incubation
Experimental: as §3

KRAS G12V in SW620 = assay: pERK inhibition assay, SW620; assay type: cell-based, human; details: Homo sapiens, SW-620, SW620 cells, 4 hours incubation
Experimental: as §3

KRAS G12D binding to BRAF, sequence (P01116-2 other isoform, or with tags, fused parts or gaps G12D): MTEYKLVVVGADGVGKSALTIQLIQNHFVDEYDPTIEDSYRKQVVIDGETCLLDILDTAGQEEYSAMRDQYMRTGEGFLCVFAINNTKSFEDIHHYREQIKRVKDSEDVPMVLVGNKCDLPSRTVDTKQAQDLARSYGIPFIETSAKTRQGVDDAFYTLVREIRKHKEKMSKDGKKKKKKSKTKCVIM
KRAS G12D binding to BRAF, sequence (P62937 whole entry): as the sequence (P62937 whole entry) above

Row | SMILES | IC50 [1] | IC50 (KRAS G12C-BRAF complex) | IC50 (SW620 cells) | IC50 (AGS cells) | IC50 (KRAS G12D in AGS cells) | IC50 (NCI-H358 cells) | IC50 [2] | IC50 [3] | IC50 (KRAS G12V in SW620)
1 | CO[C@@H](C)c1ncc(N2CCN(C)CC2)cc1-c1c2c3cc(ccc3n1CC(F)(F)F)-c1csc(n1)C[C@H](NC(=O)[C@H](C(C)C)N(C)C(=O)C1(F)CCN(C(=O)[C@H](F)Cl)CC1)C(=O)N1CCC[C@H](N1)C(=O)OCC(C)(C)C2 (atropisomer, axis not shown; (M)) [Example 20, 1-[(2R)-2-chloro-2-fluoro-acetyl]-4-fluoro-N-[(1S)-1-[[(7S,13S)-(20M)-20-[2-[(1S)-1-methoxyethyl]-5-(4-methylpiperazin-1-yl)-3-pyridyl]-17,17-dimethyl-8,14-dioxo-21-(2,2,2-trifluoroethyl)-15-oxa-4-thia-9,21,27,28-tetrazapentacyclo[17.5.2.12,5.19,13.022,26]octacosa-1(25),2,5(28),19,22(26),23-hexaen-7-yl]carbamoyl]-2-methyl-propyl]-N-methyl-piperidine-4-carboxamide] | 415 nM | 11 nM | 5 nM | 18 nM | 11 nM | 0.2 nM | 1170 nM | 1 nM | 3 nM
2 | CCn1c(-c2cccnc2[C@H](C)OC)c2c3cc(ccc31)-c1cc(O)cc(c1)C[C@H](NC(=O)[C@H](C(C)C)N(C)C(=O)C1CC(C=O)C1)C(=O)N1CCC[C@H](N1)C(=O)OCC(C)(C)C2 (stereo partly drawn) [Example 3, N-[(1S)-1-[[(8S,14S)-22-ethyl-4-hydroxy-(21M)-21-[2-[(1S)-1-methoxyethyl]-3-pyridyl]-18,18-dimethyl-9,15-dioxo-16-oxa-10,22,28-triazapentacyclo[18.5.2.12,6.110,14.023,27]nonacosa-1(26),2,4,6(29),20,23(27),24-heptaen-8-yl]carbamoyl]-2-methyl-propyl]-3-formyl-N-methyl-cyclobutanecarboxamide] | 1030 nM | 1 nM | 684 nM | 1300 nM | 683 nM | 41 nM | 110 nM | 9 nM | 245 nM
3 | CCn1c(-c2cccnc2[C@H](C)OC)c2c3cc(ccc31)-c1cc(O)cc(c1)C[C@H](NC(=O)[C@H](C(C)C)N(C)C(=O)[C@H]1CCN(C(=O)/C=C/n3cncn3)C1)C(=O)N1CCC[C@H](N1)C(=O)OCC(C)(C)C2 (atropisomer, axis not shown; (M)) [Example 9, (3S)-N-[(1S)-1-[[(8S,14S)-22-ethyl-4-hydroxy-(21M)-21-[2-[(1S)-1-methoxyethyl]-3-pyridyl]-18,18-dimethyl-9,15-dioxo-16-oxa-10,22,28-triazapentacyclo[18.5.2.12,6.110,14.023,27]nonacosa-1(26),2,4,6(29),20,23(27),24-heptaen-8-yl]carbamoyl]-2-methyl-propyl]-N-methyl-1-[(E)-3-(1,2,4-triazol-1-yl)prop-2-enoyl]pyrrolidine-3-carboxamide] | 1930 nM | 38 nM | 853 nM | – | – | 29 nM | 103 nM | 229 nM | 742 nM
4 | CCn1c(-c2cc(N3CCN(CC(F)(F)F)CC3)cnc2[C@H](C)OC)c2c3cc(ccc31)-c1csc(n1)C[C@H](NC(=O)[C@H](C(C)C)N(C)C(=O)[C@H]1CCN(C(=O)[C@H](F)Cl)C1)C(=O)N1CCC[C@H](N1)C(=O)OCC(C)(C)C2 (atropisomer, axis not shown; (M)) [Example 26, (3S)-1-[(2R)-2-chloro-2-fluoro-acetyl]-N-[(1S)-1-[[(7S,13S)-21-ethyl-(20M)-20-[2-[(1S)-1-methoxyethyl]-5-[4-(2,2,2-trifluoroethyl)piperazin-1-yl]-3-pyridyl]-17,17-dimethyl-8,14-dioxo-15-oxa-4-thia-9,21,27,28-tetrazapentacyclo[17.5.2.12,5.19,13.022,26]octacosa-1(25),2,5(28),19,22(26),23-hexaen-7-yl]carbamoyl]-2-methyl-propyl]-N-methyl-pyrrolidine-3-carboxamide] | 2720 nM | 36 nM | 45 nM | 140 nM | 35 nM | < 0.6 nM | 200 nM | 1 nM | 13 nM
